The results in this text go back to patent US20040248208A1, “Screening method” (priority 2001, published 2004).

Holding throughout (assay type): cell-based
Assay [1] deals with T1, TGR4 (Homo sapiens, UniProt Q9H1C0).
T1 construct: expressed in transfected cells
The experiment in a line: Intracellular calcium ion mobilization activity in TGR4-expressing CHO cells (FLIPR). As to conditions: for EC50: TGR4-expressing CHO cells, 100% = reaction when 2 × 10^−6 M farnesyl 2-phosphate was added, read-out: Intracellular Ca^2+ mobilization activity (EC50); for concentration dependency of intracellular calcium ion mobilization activity: CHO-TGR4 (FIG. 16). The protocol:
Using TGR4 expression vector prepared in EXAMPLE 1, according to the publicly known method, the CHO cells stably expressing TGR4, which is designated CHO-TGR4, were prepared. CHO-TGR4 or CHO-mock cells, in which no receptor gene is introduced, was seeded to 96-well plate of Black plate, Clear bottom available from Costar at the concentration of 30,000 cells/well. After cultivation at 37° C. in the presence of 5% CO2 for overnight, the cells were used for assay. For washing buffer, Hank's balanced salt solution (HBSS, GibcoBRL) supplemented with 20 mM HEPES (pH7.4) and 2.5 mM probeneside (Sigma) was prepared. For sample buffer, the washing buffer supplemented with 0.1% bovine serum albumin (BSA, Sigma) was used. The washing buffer supplemented with 1% FBS, 4 μM Fluo 3-AM (Wako Pure Chemicals) and 0.04% Pluronic acid (Molecular Probes) was used as a dye loading solution. After discarding the medium, adding the dye loading solution and incubating the cells at 37° C. for 1 hour, using the plate washer, the cells were washed with the washing buffer. The cells were set to Fluorometric Imaging Plate Reader (FLIPR, Molecular Device) and the change of intracellular calcium ion concentration during three minutes after addition of sample was measured. FPP and LPA were added to sample to make a final concentration 2.5 μM each.
As well as the method described in EXAMPLE 7, using TGR4-expressing CHO cells and mock CHO cells, a study on concentration dependency of intracellular calcium ion mobilization activity by substances associated with various phospholipids compounds was made. For substances associated with various phospholipids compounds, geranylgeranyl 2-phosphate, farnesyl 2-phosphate, geranyl 2-phosphate, lysophosphatidic acid, sphingosine 1-phosphate, nordeoxycholic acid, deoxycholic acid, geranylgeranyol, farnesol were used.
Background: Calcium assays in cells follow changes in intracellular calcium, usually with a dye or a luminescent sensor.

The target of assay [2] is T1, TGR4. The experiment in a line: CRE-luciferase reporter gene assay in CHO cells transiently expressing TGR4. As to conditions: 4 hours, TGR4 and Gi co-transfected with pCRE-Luc (FIG. 4). The protocol: The expression vector plasmid pAK-TGR4 or pAK-Gi, which was prepared by inserting TGR4 cDNA or suppressive G protein a subunit Gi cDNA into pAKKO-111H, the expression plasmid vector for animal cells (the same plasmid vector as pAKKO-111H described in Biochem. Biophys. Acta by Hinuma, S. et al., Vol. 1219, pp. 251-259, 1994), and original pAKKO-111H, in which no specific gene was inserted, were transfected into the CHO cells by the following method.
Using these vectors, Escherichia coli JM109 was transformed. A colony obtained was isolated and cultured for preparation of plasmid with QIAGEN Plasmid Maxi Kit (Qiagen). Further, plasmid of pCRE-Luc (CLONTECH), in which luciferase gene is ligated as a reporter downstream cAMP response element (CRE), was prepared in a similar method. The CHO-mock cells, wherein the CHO (dhfr^−0 cells were transformed with pAKKO-111H, were seeded in 96-well black plate (Costar) at 40,000 cells/well and 100 μl of culture volume, and were cultured for overnight. For a culture on the plate, DMEM (Dulbecco's modified Eagle's medium, CibcoBRL) supplemented with nothing but 10% fetal bovine serum was used. In order to detect an increase of expression level of the reporter gene more clearly, the pAK-Gi was co-transfected with the pAK-TGR4. Each plasmid was added to 240 μl of Opti-MEM-I (GibcoBRL) at the ratio of 7:3:1 of pAK-TGR4:pAK-Gi:reporter plasmid pCRE-Luc. This solution was mixed with the same volume of solution wherein 10 μl of Lipofectamine 2000 was added to 240 μl of Opti-MEM-I to form a complex of liposome and plasmid according to the method described in the manual attached to Lipofectamine 2000. To culture of CHO-mock cells, 25 μl/well of the above-mentioned solution was added. After 4 hours at 37° C., a culture broth was replaced to an assay buffer (DMEM supplemented with 0.1% bovine serum albumin) to be serum-free for introduction of the plasmid. Then, these cells were cultured at 37° C. under the condition of 5% CO2 for overnight.
To the CHO-mock cells transfected as described above, geranylgeranyl 2-phosphate (GGPP, Sigma), farnesyl 2-phosphate (FPP, Sigma) and lysophosphatidic acid (LPA, Sigma) were added to the concentration of 1 μM, 0.1 μM, and […], respectively, and incubated at 37° C. under the condition of 5% CO2 for 4 hours. After discarding the supernatant, 50 μl of Picagene LT2.0, the substrate for assaying luciferase activity were added, and luminescence level of luciferase was measured using plate reader (ARVO sx multilabel counter, Wallac).

Assay [3] deals with T1, TGR4. The experiment in a line: cAMP production in TGR4-expressing CHO cells. Particulars: for cAMP production increasing activity dependent on concentration: CHO-TGR4 (FIG. 18); for level of cAMP production: final concentration 2 μM, 30 minutes, CHO-TGR4 versus CHO-mock (FIGS. 7 and 8). Here is the method: The CHO-TGR4 prepared in EXAMPLE 2, or the CHO-mock cells, in which no receptor gene is introduced, were seeded on 96-well plate at the concentration of 25,000 cells/well. After cultivation at 37° C. in the presence of 5% CO2 for overnight, the cells were used for assay. For the sample buffer, HBSS supplemented with 0.1% BSA and 0.2 mM IBMX (Sigma) was used. The cells were washed twice with the sample buffer and pre-incubated at 37° C. for 30 minutes. Thereafter, the cells were also washed twice and incubated at 37° C. for 30 minutes after adding of sample. Farnesyl 2-phosphate or lysophophatidic acid was added to the sample to make a finalconcentration 2 μM. After incubation with the sample, a level of cAMP production was measured using cAMP Screen System (ABI).
As well as the method described in EXAMPLE 8, using TGR4-expressing CHO cells and mock CHO cells, a study on concentration dependency of cAMP production increasing activity by substances associated with various phospholipids compounds was made. […] For abbreviation of compounds, see EXAMPLE 9.
Background: cAMP levels reflect the balance of adenylyl cyclase and phosphodiesterase activity.

The target of assay [4] is T2, TGR4-GFP fusion protein (Homo sapiens, UniProt Q9H1C0).
T2 construct: expressed in transfected cells; host or cells: CHO-mock cells (CHO dhfr- transformed with pAKKO-111H), transient, Lipofectamine 2000
The experiment in a line: Intracellular translocation of TGR4-GFP fusion protein expressed in CHO cells. As to conditions: 10^−6 M, thirty minutes after addition. From the text:
Expression plasmid wherein fusion protein that cDNA encoding Green Fluorescent protein (GFP) isolated from Aequorea coerulescens was ligated to the C-terminus of TGR4 by adjusting a translation frame, was constructed. As GFP cDNA, a fragment excised from GFP-expressing vector pQBI25 (Takara Shuzo) was used. The stop codon of TGR4 was modified to the recognition sequence of restriction enzyme NheI by the PCR method. GFP fragment was ligated to the terminus, and the obtained fragment was inserted into the expression vector pAKKO-111H. The thus obtained plasmid, which is an expression vector for fusion protein of TGR4 and GFP (hereinafter referred to as TGR4-GFP) was transfected to CHO-mock cells by the following method. The CHO-mock cells were suspended in growth medium (DMEM (Dulbecco's Modified Eagle Medium) (GIBCO BRL) supplemented with 10% fetal bovine serum (GIBCO BRL)), seeded on Lab-Tek II coverglass chamber (Nalgen Nunc), which has 4 chambers, at the concentration of 0.6×10^5 cells/chamber. After cultivation at 37° C. in the presence of 5% CO2 for overnight, transfection was carried out. For transfection, Lipofectamine™ 2000 Reagent (GIBCO BRL) was used. Firstly, 2 μl of Lipofectamine™ 2000 Reagent and 50 μl of OPTI-MEM-I (GIBCO BRL) were admixed and stood for 20 minutes at room temperature to form a complex of DNA with lipofectamine. […]

For assay [5], the target named is T1, TGR4. The experiment in a line: Activation of p44/42 MAP kinase in human TGR4-expressing CHO cells. Particulars: 0.1 μM; TGR4-expressing CHO cells versus mock cells. The protocol:
Human TGR4-expressing CHO cells and mock cells were seeded on 6-well plate at the concentration of 3×10^5 cells/well and cultured for overnight. For removal of serum, the medium was replaced with α-MEM including no nucleic acid supplemented with 0.1% BSA, and the cells were further incubated for overnight. Until just before assay, preincubation using the same medium for 2 hours was carried out. By adding 0.1 μM farnesyl 2-phosphate to the medium, the treatment was started. With respect to each given time, the medium was removed by aspiration and the reaction was terminated by addition of sumple buffer for SDS-PAGE. In accordance with conventional manner, SDS-PAGE was done and then the proteins were transferred to nitrocellulose membrane. Following the method described in the manual of Phospho Plus p44/42 MAPK (Thr202/Tyr204) Antibody Kit (Cell Signaling), detection of p44/42 MAP kinase was performed. […] Thus it became clear that the enzyme was activated.

What is called EC50 is the concentration at which the effect is half-maximal.

In the case of `C[C@H](CCC(=O)O)[C@H]1CC[C@H]2[C@@H]3CC[C@@H]4C[C@H](O)CC[C@]4(C)[C@H]3C[C@H](O)[C@]12C` [Deoxycholic acid], the EC50 in assay [1] is above 2500 nM.
The same measure, in the same setting: in the case of `CC(C)=CCOP(=O)(O)OP(=O)(O)O` [Dimethylaryl 2-phosphate] it was above 2500 nM.
Same read-out and setting: in the case of `CC(C)=CCCC(C)=CCCC(C)=CCO` [Farnesol] it was above 2500 nM.
Take `CC(C)=CCC/C(C)=C/CC/C(C)=C/COP(=O)(O)OP(=O)(O)O` [Farnesyl 2-phosphate, farnesyl 2-phosphate]: the luciferase activity result in assay [2] (0.1 μM) is reported as “increase of luciferase activity was detected”. Besides, in assay [2] (1 μM), the luciferase activity entry is recorded as “increase of luciferase activity was detected”. Besides, in assay [1], the “concentration dependency of intracellular calcium ion mobilization activity” value was “activity dependent on concentration was perceived” and the EC50 amounted to 29 nM. Moreover, in assay [1] (final concentration 2.5 μM, CHO-TGR4 versus CHO-mock (FIGS. 5 and 6)), the “intracellular calcium ion mobilization activity” value is “increased in the manner specific to CHO-TGR4”. In addition, in assay [3], the “cAMP production increasing activity dependent on concentration” value is “activity dependent on concentration was perceived” and the “level of cAMP production” value was “increased in the manner specific to CHO-TGR4”. Besides, the “translocation of TGR4-GFP fluorescence from cell membrane” value in assay [4] is reported as “translocated to cytoplasm”. Besides, the “phosphorylation of p44/42 MAP kinase” value in assay [5] was “phosphorylation of MAP kinase specific to human TGR-expressing CHO cells”.
In the case of `CC(C)=CCC/C(C)=C/COP(=O)(O)OP(=O)(O)O` [Geranyl 2-phosphate], the EC50 in assay [1] was above 2500 nM.
In the case of `CC(C)=CCC/C(C)=C/CCC(=O)O` [Geranyl acetic acid], in assay [1], the EC50 is above 2500 nM.
The same measure, in the same setting: the figure for `CC(=O)CC/C=C(\C)CCC=C(C)C` [Geranyl acetone] is above 2500 nM.
On to `CC(C)=CCC/C(C)=C/CN` [Geranylamine], for which, in assay [1], the concentration giving a half-maximal response (EC50) is above 2500 nM.
On the same count and under the same terms, in the case of `CC(C)=CCC/C(C)=C/CCl` [Geranylchloride] it was above 2500 nM.
Take `CC(C)=CCC/C(C)=C/CC/C(C)=C/CC/C(C)=C/COP(=O)(O)OP(=O)(O)O` [Geranylgeranyl 2-phosphate, geranylgeranyl 2-phosphate]: the luciferase activity entry in assay [2] (0.1 μM) is reported as “increase of luciferase activity was detected”. Besides, the luciferase activity result in assay [2] (1 μM) is listed as “increase of luciferase activity was detected”. Besides, in assay [1], the “concentration dependency of intracellular calcium ion mobilization activity” value is listed as “activity dependent on concentration was perceived” and the half-maximal effective concentration (EC50) amounted to 19 nM. Further, the “cAMP production increasing activity dependent on concentration” value in assay [3] is on record as “activity dependent on concentration was perceived”.
As for `CC(C)=CCC/C(C)=C/CC/C(C)=C/CC/C(C)=C/CO` [Geranylgeranyol], the half-maximal effective concentration (EC50) in assay [1] was above 2500 nM.
Still for that read-out and setting: the figure for `CC(C)=CCC/C(C)=C/CO` [Geranyol] is above 2500 nM; for `C[C@H](CCC(=O)O)[C@H]1CC[C@H]2[C@@H]3CC[C@@H]4C[C@H](O)CC[C@]4(C)[C@H]3CC[C@]12C` [Lithocolic acid] it is above 2500 nM; for `C[C@H](CC(=O)O)[C@H]1CC[C@H]2[C@@H]3CC[C@@H]4C[C@H](O)CC[C@]4(C)[C@H]3C[C@H](O)[C@]12C` [Nordeoxycholic acid] it is above 2500 nM.
As for `CCCCCCCCCCCCC/C=C/[C@@H](O)[C@@H](N)COP(=O)(O)O` [Sphingosine 1-phosphate], the concentration giving a half-maximal response (EC50) in assay [1] came to 1500 nM.
On to lysophosphatidic acid, for which the luciferase activity entry in assay [2] (1 μM) is “increase of luciferase activity was detected”. Further, in assay [3], the “level of cAMP production” value is reported as “increased in the manner specific to CHO-TGR4”.
